The text below walks through data of US20070161644A1, “Erastin analogs and uses thereof” (priority 2005, published 2007).

The test system of one assay is BT-549. The assay is described as follows: Sytox screen, tumor cell line panel. Particulars: Homo sapiens, Breast, activated pathway, read-out: IC 50, BT-549. The class given is cell-based.
The next assay concerns PC-3. The assay is described as follows: Sytox screen, tumor cell line panel. It counts as cell-based. Particulars: Homo sapiens, Prostate, read-out: IC 50, PC-3.
A further assay relates to HT1080. In words: Sytox screen, tumor cell line panel. It counts as cell-based. Particulars: Homo sapiens, HT-1080; fibrosarcoma; n-ras mutation; read-out: IC 50, HT1080.
For another assay, the system named is SK-MEL-28. In words: Sytox screen, tumor cell line panel. The class given is cell-based. Particulars: Homo sapiens, Melanoma, B-raf V600E mut, ras wt, read-out: IC 50, SK-MEL-28.
The subject of a further assay is MCF7. The assay is described as follows: Sytox screen, tumor cell line panel. It counts as cell-based. Particulars: Homo sapiens, Breast, activated pathway, read-out: IC 50, MCF7.
For the next assay, the system named is MALME-3M. The assay is described as follows: Sytox screen, tumor cell line panel. The class given is cell-based. Particulars: Homo sapiens, Melanoma, B-raf V600E mut, ras wt, read-out: IC 50, MALME-3M.
Another assay deals with OVCAR-5. In words: Sytox screen, tumor cell line panel. The class given is cell-based. Particulars: Homo sapiens, Ovarian, K-ras G12V, read-out: IC 50, OVCAR-5.
The next assay deals with MIA-PaCa-2. In words: Sytox screen, tumor cell line panel. Particulars: Homo sapiens, Pancreatic, K-ras mutant (G12C), read-out: IC 50, MIA-PaCa-2. It counts as cell-based.
The subject of the next assay is HOP-92. The assay is described as follows: Sytox screen, tumor cell line panel. Particulars: Homo sapiens, Non-Small Cell Lung, Wt ras, read-out: IC 50, HOP-92. It counts as cell-based.
The test system of another assay is DLD-1. The assay is described as follows: Sytox screen, tumor cell line panel. The class given is cell-based. Particulars: Homo sapiens, Colon, K-ras G13D mutation, wt B-raf, read-out: IC 50, DLD-1.
A further assay has as its system PANC-1 xenografts. In words: PANC-1 tumor treatment study. It counts as in vivo. Particulars: immunodeficient nude mouse; once a day for five consecutive days. The protocol: The experimental plan for the PANC-1 study was essentially identical to that of the HT-1080 study outlined above in Example 10 with the following exceptions: approximately 30-40 mg fragment of passaged PANC-1 tumor tissue was implanted subcutaneously in the right flank of an immunodeficient nude mouse. Tumor growth was monitored daily and when the tumors reached approximately 100 mm^3, animals harboring similarly sized tumors were group matched and compound dosing was initiated. Administration of compound 5 occurred once a day for five consecutive days at the doses listed below. In the PANC-1 xenografts, gemcitabine, administered at the maximum tolerated dose for the model, was used as a control. The gemcitabine regimen was 180 mg/kg […] on every third day over a period of 9 days.

The next assay has as its system OVCAR-3. In words: Sytox screen, tumor cell line panel. The class given is cell-based. Particulars: Homo sapiens, Ovarian, K-ras amplification, read-out: IC 50, OVCAR-3.
The subject of another assay is HOP-62. The assay is described as follows: Sytox screen, tumor cell line panel. Particulars: Homo sapiens, Non-Small Cell Lung, K-ras G12V, read-out: IC 50, HOP-62. The class given is cell-based.
In the next assay the test system is DU-145. In words: Sytox screen, tumor cell line panel. Particulars: Homo sapiens, Prostate, Wt ras, read-out: IC 50, DU-145. It counts as cell-based.
The test system of the next assay is HCT116. The assay is described as follows: Sytox screen, tumor cell line panel. The class given is cell-based. Particulars: Homo sapiens, HCT-116; Colon; K-ras G12D; read-out: IC 50, HCT116.
A further assay deals with PANC-1. In words: Sytox screen, tumor cell line panel. It counts as cell-based. Particulars: Homo sapiens, Pancreatic, K-ras V12 mutant, read-out: IC 50, PANC-1.
A further assay relates to SK-MEL-5. The assay is described as follows: Sytox screen, tumor cell line panel. The class given is cell-based. Particulars: Homo sapiens, Melanoma, B-raf V600E mut heterozygote, read-out: IC 50, SK-MEL-5.
A further assay concerns BJELR. In words: Sytox primary screen. It counts as cell-based. Particulars: Homo sapiens. The text has this: The Sytox primary screen is a phenotypic assay which monitors alterations in cell survival-proliferation as a result of compound treatment. It was devised as high throughput method to identify compounds which specifically alter the growth potential of cells harboring the causative mutations found in cancer patients while not affecting the growth of normal cells.
The assay relies upon an inexpensive, simple and reliable readout of a membrane impermeable fluorescent dye (Sytox, from Molecular Probes) which binds to nucleic acid. In healthy cells, no signal is detected because the cell's membrane is intact and the dye will not enter. However, if a cell's membrane is compromised as a result of apoptosis or necrosis, a fluorescent signal proportional to the number of similarly affected cells will be detected. By utilizing a two-step readout (final read in the presence of detergent to permit labeling of all cells), the assay can identify compounds which produce cytostasis, cytotoxicity and/or mitogenesis. The first read or “dead cell” read provides an estimate of the toxicity of a given compound by indicating the number of dead or dying cells in the culture at the time of assay. The second read or “total cell” read captures both the cumulative effects of cytoxicity in reducing the size of the cell population as well as any cytostatic or anti-proliferative effects a test compound may exert on the cells in the test population in the absence of toxicity.
For the purpose of screening, the previously described BJ-TERT line was defined as the “normal” reference cell line and BJ-TERT/LT/ST/RAS^V12 cells were the tumorigenic cell line. Cells were seeded overnight in 96 well plates at densities which without treatment would permit 95% confluence in the wells 72 H later. The following day, the cells were exposed to test compounds in a dilution series for a period of 48 hours. Following this incubation period, the Sytox reagent was added to the cultures at the manufacturer's recommended concentration and the dead cell fluorescence read was taken. After completion of this measurement, the detergent Saponin was added to each well of the cultures to permeabilize the membranes allowing the Sytox reagent to enter every cell thereby, facilitating measurement of the total number of cells remaining in the culture.

A further assay deals with HT-1080 xenografts. In words: HT-1080 tumor treatment study. Particulars: nude Balb/c mice; 100 or 50 mg/Kg, QD×5 days, IP. The class given is in vivo, mouse. As to the method: Nude Balb/c (Nu/Nu strain, Charles River Laboratories), female, 5-6 week. old (˜20 g average body weight).
Both compounds were formulated in an identical manner. For the 100 mg/kg dose level, each compound was delivered at a concentration of 10.0 mg/ml, in an injection volume of 0.2 ml. For the 50 mg/kg dose level, each compound was delivered at a concentration of 5.0 mg/ml, in an injection volume of 0.2 ml. For both dose levels, the vehicle contained 0.025% Tween-80, 0.01% benzyl alcohol, 35 mM acetic acid (HOAc), 100 mM potassium phosphate buffer, and 32 mM sucrose, pH=6.5.
Beginning when the mean tumor volume reached ˜200 mm^3, and continuing through day 5, every day, each animal was administered a single IP injection of one of the above treatments, for a total of 5 doses.
Each of 70 mice was implanted with 1×10^7 HT-1080 cells by SC injection of 0.1 cc of inoculum into the right hind flank. A 25 G×⅝″ needle size was used. […]
Starting on Day 1, all animals were weighed, and tumor dimensions (length (L) and width (W)) were measured, every other day. […]
The resulting tumor volume values were averaged for each study group for each time point, and were then plotted against time. Variance was expressed as standard error of the mean (±SEM).

Another assay concerns SK-OV-3. In words: Sytox screen, tumor cell line panel. The class given is cell-based. Particulars: Homo sapiens, Ovarian, read-out: IC 50, SK-OV-3.

The structures appear in SMILES notation. Like-named read-outs stand apart in the source and are kept apart here. Bounds are passed on as bounds.

On to `CCOc1ccccc1-n1c(CN2CCNCC2)nc2ccccc2c1=O` [Compound 5, 3-(2-ethoxyphenyl)-2-(piperazin-1-ylmethyl)quinazolin-4(3H)-one], for which the IC50 in the assay with BT-549 was at least 100 nM; in the assay on PC-3, at least 1000 nM; with HT1080 it was under 100 nM; in the assay on SK-MEL-28, at least 100 nM; with MCF7, at least 1000 nM; in the assay on MALME-3M it was at least 100 nM. Further, the IC50 is under 100 nM with OVCAR-5; at least 1000 nM with MIA-PaCa-2; at least 1000 nM with HOP-92; at least 100 nM in the assay with DLD-1; at least 100 nM in the assay with OVCAR-3; at least 100 nM in the assay with HOP-62. The IC50 with DU-145 is at least 100 nM; in the assay on HCT116, at least 100 nM; in the assay with PANC-1 it was under 100 nM; in the assay on SK-MEL-5 it was at least 100 nM; in the assay on BJELR (Sytox screen, 48 hours, read-out: IC50 in BJELR) it was under 100 nM; in the assay with BJELR (fibroblast, primary, ras V12 mutation, read-out: IC 50, BJELR) it was under 100 nM. For the same compound, the IC50 with SK-OV-3 was at least 100 nM. Also, the “antitumor activity in PANC-1 xenografts” value in the assay on PANC-1 xenografts is reported as “tumor regression”. In the assay with HT-1080 xenografts, the “antitumor activity in HT-1080 xenografts” value is given as “robust tumor regression”.
